Data on three compounds can be found in patent US4687773A, “(+)-N-N-propylnorapomorphine and selective limbic activity” (priority 1985, dated 1987).

Where two headings read alike, the source gives them in different places.

For data set [1], the target named is Dopamine Receptors. It counts as binding, calf. The settings on record: ligand [3H]ADTN (0.5 nM).
Data set [2] concerns the target Dopamine Receptors. It counts as binding, calf. The following applies: ligand [3H]APO (0.5 nM).
The subject of data set [3] is dopamine (DA) receptors in the limbic system and basal ganglia. The data set is described as follows: Total motor activity, electronic activity monitor (EAM). It counts as in vivo, rat. Here is the method: (§1) Activity: Overall motor activity was measured by use of the self-recording Stoelting electronic activity monitor method described previously by Stewart, Campbell, Sperk, and Baldessarini^9. Total activity is obtained by setting monitor sensitivity so as to detect both locomotion and small movements (such as grooming, sniffing, and chewing) as would be prominent in stereotyped responses that tend to diminish locomotion and increase sniffing, licking, and chewing movements. Locomotor activity is detected selectively by setting monitor sensitivity to detect large, locomotor movements, and to minimize smaller movements already described.
(§2) All data presented in the Tables below are expressed as the mean results from 4-6 rats per condition, ±S.E.M. Stereotypy is expressed in rating units (maximum=3.0) and activity is expressed in arbitrary units of percent change, derived from EAM counts per unit time, relative to activity in control (saline) animals set at zero.
All the posttreatment doses of (+)APO were 3.0 mg/kg, s.c. The data
All posttreatment doses of (+)NPA were 3 mg/kg, s.c. The data are similar

The subject of data set [4] is DA in the corpus striatum (basal ganglia). The data set is described as follows: Head posture (contralateral head deviation) after intrastriatal DA. Format: in vivo, rat. The settings on record: intrastriatal DA 16 μg; aporphine 3 mg/kg systemic (route not given).
The subject of data set [5] is dopamine (DA) receptors in the basal ganglia (corpus striatum). As to the kind of experiment: Stereotyped licking and gnawing behavior rating in the rat. It counts as in vivo. An excerpt:
Stereotypy: The mean stereotyped licking and gnawing behavioral rating scheme developed by Tarsy and Baldessarini^8 was used. […]
Stereotypy scores were rated for one hour as described in […]

For data set [6], the system named is dopamine (DA) receptors in the limbic system. The data set is described as follows: Locomotor activity (spontaneous or aroused by (-)APO / (-)NPA), electronic activity monitor. Format: in vivo, rat.
The test system is the same in data set [7]. The data set is described as above. Format: in vivo, rat. The protocol:
as §1
Rats (mean N=6 per condition) were tested for locomotor activity for 60 min following a single dose of (-)APO (0.3 mg/kg, SC), or its vehicle ("placebo" condition). The S(+) isomers were administered in a range of doses from 0 or 0.1 to 30 mg/kg, SC immediately following injection of (-)APO or its vehicle. Data are presented in FIG. 2 as mean EAM activity counts per hour SEM. In that figure, the dashed line labeled "control" represents the mean activity of rats given vehicle only and no aporphine (SD values are indicated by parallel light lines above and below the control mean).
Test agents (11substituted-N--propylnoraporphine isomers were given at a
dose of 3 mg/kg, ip (in 2 ml/kg) just prior to (-)apomorphine (APO, at 0.
mg/kg, ip, in 1 ml/kg) to rats (N = 6) tested in an electronic activity
The source holds these as a separate data set.

The subject of data set [8] is DA in the limbic system (nucleus accumbens septi). As to the kind of experiment: Arousal (locomotor activity) induced by DA injected into nucleus accumbens septi. The settings on record: for activity counts (arousal induced by 16 μg DA in accumbens): 30 min, DA control 238 ± 38. It counts as in vivo, rat. Here is the method: An experiment shown in Table 9 involves testing the effects of S(+) isomers of apomorphine (APO) and N-propylnorapomorphine (NPA) given systemically (intraperitoneally, ip), as well as S(+) methylenedioxy-N-propylnorapomorphine (MDO-NPA) given ip or orally (po, by orogastric intubation). […]. […] Activity was monitored for 30 min after injection of DA into the brain, which was done at 10 min after systemic dosing with an S(+)aporphine test compound.
Data are mean activity counts ± SEM (N = 6) for rats given DA into the
medial accumbens after pretreatment with an inhibitor of monoamine oxidas
(MA0), and monitored on EAM for 30 min (aporphine given 10 min before DA
systemicallyintraperitoneally [ip] or orally [po].

Data set [9] has as its target T1, Dopamine (DA) sensitive adenylate cyclase (Rattus norvegicus, UniProt P18901).
T1 construct: homogenates of rat corpus striatum; from tissue; host or cells: rat corpus striatum homogenate
The data set is described as follows: Stimulation of formation of cyclic AMP in rat striatal homogenate. Format: biochemical. An excerpt: assayed in homogenates of corpus striatum obtained from rat brain. The
method of assay of the activity of DAsensitive adenylate cyclase by the
rate of formation of cAMP above a basal (no agonist) level is described
under Experimental Section. The data are mean values of cAMP levels in […]

Data set [10] can be described thus: Catalepsy (latency to resume normal posture). Format: in vivo, rat. The following applies: s.c., maximum 18.0. The protocol: Catalepsy: This measure of muscle rigidity is assessed by having animals in abnormal body positions and timing their duration of maintaining these. This is done by placing rats on a wire grid placed at a 45° angle to the benchtop, or by placing their forelimbs on a raised horizontal metal bar, and timing the latency to resume a normal posture by stopwatch.
as §2

For data set [11], the target named is T2, rat liver catechol O-methyl-transferase (COMT) (Rattus norvegicus, UniProt P22734).
T2 construct: partially purified rat liver catechol O-methyl-transferase (COMT); from tissue; host or cells: rat liver, ammonium sulfate precipitation and dialysis
T2 sequence (P22734 1-221 isoform P22734-2): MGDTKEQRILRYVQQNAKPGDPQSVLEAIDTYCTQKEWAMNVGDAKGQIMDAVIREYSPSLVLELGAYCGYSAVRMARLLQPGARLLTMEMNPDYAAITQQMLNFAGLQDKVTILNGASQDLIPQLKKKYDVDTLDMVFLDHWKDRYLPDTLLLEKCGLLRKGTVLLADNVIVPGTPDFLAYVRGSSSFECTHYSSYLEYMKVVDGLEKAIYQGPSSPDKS
The data set is described as follows: Isomeric substrate selectivity for rat liver COMT. Format: biochemical.

Where [12] appears, read: Table 4, (+)APO 3.0 mg/kg s.c. after (-)APO 0.3 mg/kg.
[13] abbreviates: Table 4, (+)APO 3.0 mg/kg s.c. after (-)APO 1.0 mg/kg.
Setting [14] is: Table 4, (+)APO 3.0 mg/kg s.c. after (-)APO 3.0 mg/kg.
[15] abbreviates: Table 4, (+)APO 3.0 mg/kg s.c., (-)APO 0.
Where [16] appears, read: Table 5, (-)NPA 0.3 mg/kg + saline.
Where [17] appears, read: Table 5, (-)NPA 3.0 mg/kg + saline.
Where [18] appears, read: 2.5 min, read-out: cAMP production, % of control.

T1 sequence (P18901 whole entry): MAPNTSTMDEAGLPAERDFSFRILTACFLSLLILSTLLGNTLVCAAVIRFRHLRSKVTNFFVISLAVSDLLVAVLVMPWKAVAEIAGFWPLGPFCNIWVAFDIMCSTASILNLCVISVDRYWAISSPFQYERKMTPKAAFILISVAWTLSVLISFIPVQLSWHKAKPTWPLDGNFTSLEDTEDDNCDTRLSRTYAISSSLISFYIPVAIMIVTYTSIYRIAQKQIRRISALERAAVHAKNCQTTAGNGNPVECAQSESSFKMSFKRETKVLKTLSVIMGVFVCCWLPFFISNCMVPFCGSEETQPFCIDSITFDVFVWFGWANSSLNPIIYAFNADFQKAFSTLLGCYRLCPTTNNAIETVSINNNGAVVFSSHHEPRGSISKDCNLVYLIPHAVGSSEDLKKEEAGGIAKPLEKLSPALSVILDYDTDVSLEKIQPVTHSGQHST

For `CCCN1CCc2cccc3c2C1Cc1ccc(O)c(O)c1-3` (racemic) [(±)-NPA, (RS)-N-n-Propylnorapomorphine], the IC50 on Dopamine Receptors [1] turned out to be 3.5 nM; against Dopamine Receptors [2], 5 nM.

With `CN1CCc2cccc3c2[C@@H]1Cc1ccc(O)c(O)c1-3` [(+)APO, S(+) isomers of apomorphine (APO)], the “Total Activity” value in [3] (setting [12]) was 36.2 ± 0.92 percent change; in data set [3] (setting [13]), 44.6 ± 0.75 percent change; in data set [3] (setting [14]), 62.0 ± 0.48 percent change; in data set [3] (setting [15]) it was -0.62 ± 0.33 percent change. The “Contralateral Head Deviation, Percent of Total” value in [4] is listed as 57.2% of Total. For the same compound, the “Contralateral Head Deviation, Time” value in [4] amounted to 412 ± 53 s. Further, the “Stereotypy Score” value in data set [5] (setting [12]) came out at 0.89 ± 0.36 rating units; in data set [5] (setting [13]), 1.92 ± 0.21 rating units; in data set [5] (setting [14]), 2.93 ± 0.32 rating units; in [5] (setting [15]), 0.32 ± 0.62 rating units. Besides, the Locomotion is listed as 43.0 ± 5.2 percent change in [6] (setting [13]), 36.2 ± 4.3 percent change in data set [7] (setting [12]), 42.1 ± 6.3 percent change in data set [7] (setting [14]) and -0.84 ± 0.22 percent change in data set [7] (setting [15]). The “ID50 to reduce the locomotor activating actions of (-)APO” value in [7] (s.c., (-)APO 0.3 mg/kg) was 4 mg/kg. Moreover, in data set [7] (spontaneous activity), the “ID50, spontaneous locomotor arousal” value is reported as greater than 50 mg/kg. Also, the entries for the “activity counts (arousal induced by 16 μg DA in accumbens)” value in [8] (0.3 mg/kg ip), in data set [8] (1.0 mg/kg ip) and in data set [8] (3.0 mg/kg ip) were 246 ± 41 activity counts, 190 ± 37 activity counts and 125 ± 19 activity counts, respectively. The ED50 in data set [8] (Rattus norvegicus, ip, DA 16 μg in accumbens, read-out: ID50 (the source's name)) came out at 4 mg/kg. This compound registered an ID50 in data set [8] (ip, DA 16 μg in accumbens) of 3.6 mg/kg.

With `CCCN1CCc2cccc3c2[C@H]1Cc1ccc(O)c(O)c1-3` [(-)NPA, (R)-N-n-propylnorapomorphine], the “Total Activity” value in data set [3] (Table 3, 0.1 mg/kg, s.c.) is 2.0 ± 1.8 percent change vs. placebo con; in data set [3] (Table 3, 0.3 mg/kg, s.c.) it was 2.1 ± 3.2 percent change vs. placebo con; in [3] (Table 3, 3.0 mg/kg, s.c.), 231.4 ± 37 percent change vs. placebo con; in data set [3] (setting [16]) it was 22.1 ± 3.7 percent change; in data set [3] (setting [17]), 231.4 ± 37 percent change. Moreover, the IC50 at Dopamine Receptors [1] stood at 2 nM; on Dopamine Receptors [2] it was 2.5 nM. Moreover, the cAMP production in data set [9] (1 μM) came to 3.71 ± 0.31 picomoles per 2.5 min; in data set [9] (5 μM) it was 4.57 ± 0.13 picomoles per 2.5 min; in data set [9] (10 μM), 5.34 ± 0.27 picomoles per 2.5 min; in [9] (50 μM), 5.71 ± 0.24 picomoles per 2.5 min; in data set [9] (100 μM), 5.56 ± 0.24 picomoles per 2.5 min. Further, the cAMP formation, % of control at 1 µM in data set [9] (setting [18]) was 150%. For the same compound, the cAMP formation, % of control at 5 µM in data set [9] (setting [18]) turned out to be 184%. Besides, the cAMP formation, % of control at 10 µM in [9] (setting [18]) is 215%. The cAMP formation, % of control at 50 µM in data set [9] (setting [18]) is 230%. Further, the cAMP formation, % of control at 100 µM in data set [9] (setting [18]) was found to be 224%. Also, the “Stereotypy Score” value in data set [5] (Table 1, (-) isomer 3 mg/kg, s.c., ± saline, maximum 3.0) is on record as 2.9 ± 0.1 rating units; in data set [5] (Table 3, 0.1 mg/kg, s.c., maximum 3.0) it was 1.1 ± 0.2 rating units; in data set [5] (Table 3, 0.3 mg/kg, s.c., maximum 3.0), 2.0 ± 0.3 rating units; in data set [5] (Table 3, 3.0 mg/kg, s.c., maximum 3.0), 2.9 ± 0.9 rating units; in data set [5] (Table 3, 5.0 mg/kg, s.c., maximum 3.0), 3.0 ± 0.0 rating units; in data set [5] (setting [16]), 2.0 ± 0.2 rating units. Moreover, the “Stereotypy Score” value in [5] (setting [17]) amounted to 2.8 ± 0.4 rating units. Moreover, the Locomotion came to 10.2 ± 6.3 percent change in data set [6] (setting [17]) and 48.1 ± 9.2 percent change in data set [7] (setting [16]). The results for the Catalepsy score in data set [10] (0.1 mg/kg) and in [10] (3.0 mg/kg) were 0.5 ± 0.2 and 0.8 ± 0.3, respectively. Further, in [11] (footnote range), the “Vmax (range of two experiments)” value was 8.9-11.1 (pmol/assay)/h. For the same compound, the Vmax in [11] (mean, substrate of rat liver COMT) is reported as 10.0 (pmol/assay)/h.
